Assay results published in US20230064292A1, “METHODS OF TREATING PSMA-POSITIVE CANCER USING RADIONUCLIDE THERAPY” (priority 2020, published 2023).
“And” between values parts separate entries of the source, which are not always exact repeats. Equal values may be shown once.

How the values were obtained:
Assay type in all cases: in vivo, human
[1] = tested on: prostate specific antigen (PSA); assay: PSA levels in patients after CTT1403 administration
Method: (§1) In order to investigate the pharmacokinetics of CTT1403, doses were administered by IV to fifteen subjects. The subjects each had histologically confirmed prostate adenocarcinoma that was metastatic and castration resistant (mCRPA). Subjects with de novo small cell carcinoma of the prostate were excluded. The subjects further had at least three metastatic foci avid for PSMA-specific PET agent CTT1057 or 68Ga-PSMA-11 uptake. PSMA avidity was defined as SUVmax>mediastinal blood pool. The subjects had received docetaxel, were ineligible for docetaxel, or had refused docetaxel. They all further had progression by the PCWG3 criteria during or after treatment with abiraterone, enzalutamide, and/or apalutamide, and had serum testosterone<50 ng/dL. Subjects without a history of bilateral orchiectomy were required to remain on a luteinizing hormone-releasing hormone (LHRH) analog during the course of the protocol therapy.
Reduction in prostate specific antigen (PSA) at least 12 weeks after therapeutic administration is generally thought to be predictive of therapeutic efficacy. PSA levels at screening, at CTT1403 administration and at specified time points after CTT1403 administration are shown for selected patients enrolled in the trial, including patients still actively under observation (Patients 13, 14, 15). Reduction in PSA compared to Cycle 1, Day 1 has been observed in 4 patients to date: Patient 002 (75% maximum reduction), Patient 4 (40% maximum reduction), Patient 13 (14% reduction to date) and Patient 15 (9% reduction to date).

[2] = Pharmacokinetics of CTT1403 in mCRPC subjects (radioactivity of blood samples)
Method: as §1
Pharmacokinetics assessment follows the movement of drugs throughout the body, including measurement of the drug's half-life in circulation. The longer a drug remains available in circulation before being cleared from the body, the greater the opportunity for it to meet its target and achieve the desired therapeutic effect. To measure pharmacokinetics, remaining CTT1403 was estimated by measuring the radioactivity of blood sample withdrawn at particular time points. Each patient received a dose ranging from 0.75 GBq to 7.5 GBq.
This is already more than a 5.3-fold greater distribution phase and 3.5-fold greater elimination phase than the PSMA-617 agent (without the albumin binder) and will further increase as the dose increases. […] CTT anticipates that these early observations will translate to compelling efficacy as the trial progresses. Table 1 reports the blood distribution and elimination half-lives for 13 of 15 patients enrolled in the study. […] Longer clearance half-lives will advantageously yield enhanced drug delivery as CTT1403 has more time to find and bind to expressed PSMA. This effect also allows more time for the therapeutic agent to reach smaller tumors or poorly-vascularized tumors. Longer systemic circulation of CTT1403 afforded by the albumin motif believed to lead to lower dosing of the kidneys, a dose-limiting factor, allowing higher dosages to be safely administered.

[3] = Physical examination and monitoring for adverse events in the clinical trial; conditions: to date
[4] = 1.5 GBq IV (1st patient at this dose)
[5] = 2.0 GBq IV (1st patient at this dose)
[6] = 3.0 GBq IV (1st patient at this dose)
[7] = 3.0 GBq IV (2nd patient at this dose)
[8] = 3.0 GBq IV (3rd patient at this dose)
[9] = 4.5 GBq IV (1st patient at this dose)
[10] = 4.5 GBq IV (2nd patient at this dose)
[11] = 4.5 GBq IV (3rd patient at this dose)
[12] = 6.0 GBq IV (1st patient at this dose)
[13] = 6.0 GBq IV (2nd patient at this dose)
[14] = 6.0 GBq IV (3rd patient at this dose)
[15] = 7.5 GBq IV (1st patient at this dose)
[16] = 7.5 GBq IV (2nd patient at this dose)
[17] = half-life of CTT1403 vs reported 177Lu-PSMA-617
[18] = mean of 13 patients, 1.5-7.5 GBq IV, preliminary

O=C(O)CC[C@H](NP(=O)(O)OCCC[C@H](NC(=O)CC[C@H](NC(=O)CCCCCNC(=O)CCC(NC(=O)CCOCCOCCOCCOCCNC(=O)CCC(=O)N1Cc2ccccc2-c2c(nnn2CCCNC(=O)CN2CCN3CCN4CCN(CC2)CC(=O)[O][177Lu]([O]C(=O)C3)[O]C(=O)C4)-c2ccccc21)C(=O)NC(CCCCNC(=O)CCCc1ccc(I)cc1)C(=O)O)C(=O)O)C(=O)O)C(=O)O (some centres unmarked) [CTT1403]
PSA Result ([1]; patient 13 (5.99 GBq), Screening (before dosing)): 166.793 µg/L
PSA Result ([1]; patient 14 (7.98 GBq), Cycle 1-Day 1): 22.642 µg/L
PSA Result ([1]; patient 14 (7.98 GBq), Cycle 1-Day 22): 142 µg/L
PSA Result ([1]; patient 14 (7.98 GBq), Screening (before dosing)): 16.310 µg/L
PSA Result ([1]; patient 15 (7.77 GBq), Cycle 1-Day 1): 595.739 µg/L
PSA Result ([1]; patient 15 (7.77 GBq), Cycle 1-Day 22): 543.5 µg/L
PSA Result ([1]; patient 15 (7.77 GBq), Screening (before dosing)): 410.363 µg/L
Distribution Half-life [2, 4]: 0.75 h
Elimination Half-life 2 [2, 4]: 28.88 h
Distribution Half-life [2, 5]: 1.04 h
Elimination Half-life 2 [2, 5]: 23.90 h
Distribution Half-life [2, 6]: 0.51 h
Elimination Half-life 2 [2, 6]: 27.73 h
Distribution Half-life [2, 7]: 0.89 h
Elimination Half-life 2 [2, 7]: 31.51 h
Distribution Half-life [2, 8]: 0.70 h
Elimination Half-life 2 [2, 8]: 36.48 h
Distribution Half-life [2, 9]: 0.85 h
Elimination Half-life 2 [2, 9]: 33.01 h
Distribution Half-life [2, 10]: 0.85 h
Elimination Half-life 2 [2, 10]: 34.66 h
Distribution Half-life [2, 11]: 0.85 h
Elimination Half-life 2 [2, 11]: 43.32 h
Distribution Half-life [2, 12]: 0.78 h
Elimination Half-life 2 [2, 12]: 46.21 h
Distribution Half-life [2, 13]: 0.57 h
Elimination Half-life 2 [2, 13]: 30.14 h
Distribution Half-life [2, 14]: 1.06 h
Elimination Half-life 2 [2, 14]: 33.01 h
Distribution Half-life [2, 15]: 1.20 h
Elimination Half-life 2 [2, 15]: 57.76 h
Distribution Half-life [2, 16]: 1.00 h
Elimination Half-life 2 [2, 16]: 57.76 h
CTT1403 detection in blood ([2]; after 2 weeks, subjects who received the 7.5 GBq dose): still detected
fold greater distribution phase than the PSMA-617 agent [2, 17]: > 5.3 fold
fold greater elimination phase than the PSMA-617 agent [2, 17]: > 3.5 fold
Distribution half-life (mean) [2, 18]: 0.85 ± 0.2 h
Elimination half-life (mean) [2, 18]: 37.3 ± 10.9 h and 37.26 h
Distribution phase half-life, range ([2]; range over patients, 1.5-7.5 GBq IV): 0.51 to 1.2 h
circulation time compared with 177Lu-PSMA-617 ([2]; vs agent lacking the albumin binding moiety): at least two to ten-fold greater
serious adverse events after receipt of CTT1403 [3]: no serious adverse events
